Laboratory results as given in article PMC2546444, “Anti-Plasmodium Activity of Angiotensin II and Related Synthetic Peptides” (PLoS ONE, 2008).
Positions of bridges follow the written chain, without caps; N, C: chain ends. Residues, ends and D or L forms follow the SMILES beside them. No end group written: not given here.

How the values were obtained:
fresh human erythrocytes = assay: Hemolytic activity; format: cell-based; conditions: peptide 0.19 to 100 μM; 0.4% human erythrocytes in PBS pH 7.4, 1 h at 37°C, read at 405 nm; triplicate
Experimental: Hemolytic activity was evaluated on fresh human erythrocytes washed three times with phosphate-buffered saline (PBS: 10 mM Na2HPO4, 1.8 mM K2-HPO4, pH 7.4, containing 140 mM NaCl and 2.7 mM KCl) ). Serial dilutions of the peptides with concentrations varying between 0.19–100 μM were incubated in Eppendorf tubes with a suspension of 0.4% erythrocytes in PBS. After 1 h at 37°C, the test tubes were centrifuged at 300g for 5 min at 5°C. Fifty microliter aliquots of the supernatants were transferred to 96-well plates and hemolysis was monitored at 405 nm using a microtiter plate reader. Negative and positive controls were prepared in PBS and in PBS supplemented with 0.1% SDS, respectively. Ang ll of the experiments was performed in triplicate.

[1] = 25% pooled non-heat inactivated human serum in PBS, 37°C; 20 μl of 10 mg/ml stock in 1 ml; sampling 0-120 min; LC/ESI-MS peak area; triplicates; data not shown
Ae.aegypti mosquitoes = assay: Survival of mosquitoes injected with ang II; format: in vivo, Aedes aegypti; conditions: 0.5 μl ang II at 10-200 μM intrathoracically; chi-square test p>0.5; mean of three independent experiments
Experimental: Supplementary file pone.0003296.s001.tif: Figure S1 Survival of mosquitoes injected with different ang II concentrations. Ae.aegypti mosquitoes (10 females) were injected intrathoracically (0.5 μl) of ang II at 10 μM, 20 μM, 50 μM, 60 μM, 100 μM and 200 μM. After 24 hour the survival of mosquitoes was scored. […] Results are the mean of three independent experiments (20 mosquitoes/group), and bars represent standard errors of the mean. (0.18 MB TIF) Click here for additional data file.

Compound	time to degradation in serum [min]	Hemolytic Activity (fresh human erythrocytes)	time within which the peptide was degraded in serum [1] [min]	effect on mosquito survival after 24 hour (Ae.aegypti mosquitoes)
CC[C@H](C)[C@H](NC(=O)[C@H](Cc1ccc(O)cc1)NC(=O)[C@@H](NC(=O)[C@H](CCCNC(=N)N)NC(=O)[C@@H]1CCCCNC(=O)C[C@H](N)C(=O)N[C@@H](CC(=O)O)C(=O)N1)C(C)C)C(=O)N[C@@H](Cc1c[nH]cn1)C(=O)N1CCC[C@H]1C(=O)N[C@@H](Cc1ccccc1)C(=O)O [VC1, Cyclo(0-1a)[Asp^0, endo-(Lys^1a)]-All] (H-DDKRVYIHPF-OH; lactam 1-3)	< 30	neg	–	–
DDKRVYIHPF [VC2, [Asp^0, endo-(Lys^1a)]-All]	< 30	neg	–	–
CC[C@H](C)[C@H](NC(=O)[C@H](Cc1ccc(O)cc1)NC(=O)[C@@H](NC(=O)[C@@H]1CCCCNC(=O)C[C@H](NC(=O)[C@@H](N)CC(=O)O)C(=O)N[C@@H](CCCNC(=N)N)C(=O)N1)C(C)C)C(=O)N[C@@H](Cc1c[nH]cn1)C(=O)N1CCC[C@H]1C(=O)N[C@@H](Cc1ccccc1)C(=O)O [VC3, Cyclo(1a-2a)[endo-(Asp^1a), endo-(Lys^2a)]-All] (H-DDRKVYIHPF-OH; lactam 2-4)	< 30	neg	–	–
DRDVKYIHPF [VC6, [endo-(Asp^2a), endo-(Lys^3a)]-All]	< 30	neg	–	–
CC[C@H](C)[C@H](NC(=O)[C@H](Cc1ccc(O)cc1)NC(=O)[C@@H](NC(=O)[C@H](CCCNC(=N)N)NC(=O)[C@@H](N)CC(=O)O)C(C)C)C(=O)N[C@@H](Cc1cnc[nH]1)C(=O)N1CCC[C@H]1C(=O)N[C@@H](Cc1ccccc1)C(=O)O [ang II, Angiotensin II]	–	neg	≤ 30	no significant effects
DDRKVYIHPF [VC4, [endo-(Asp^1a), endo-(Lys^2a)]-All]	< 30	neg	–	–
CC[C@H](C)[C@H](NC(=O)[C@H](Cc1ccc(O)cc1)NC(=O)[C@@H]1CCCCNC(=O)C[C@H](NC(=O)[C@H](CCCNC(=N)N)NC(=O)[C@@H](N)CC(=O)O)C(=O)N[C@@H](C(C)C)C(=O)N1)C(=O)N[C@@H](Cc1c[nH]cn1)C(=O)N1CCC[C@H]1C(=O)N[C@@H](Cc1ccccc1)C(=O)O [VC5, Cyclo(2a-3a)[endo-(Asp^2a), endo-(Lys^3a)]-All] (H-DRDVKYIHPF-OH; lactam 3-5)	< 30	neg	–	–
